# Measurements reported in US8759510B2, “Nucleoside cyclicphosphates” (Gilead Pharmasset LLC, priority 2008, dated 2014).
# Where two headings read alike, the source gives them in different places.
# System: HCV replicon RNA-containing Huh7 cells (clone A cells)
# Assay: HCV replicon assay
# Assay type: cell-based
# Settings: incubation 4 days, replicon RNA by RT-PCR, ΔCt of 3.3 = 1-log 10 reduction (EC90)
# Method: HCV replicon assay. HCV replicon RNA-containing Huh7 cells (clone A cells; Apath, LLC, St. Louis, Mo.) were kept at exponential growth in Dulbecco's modified Eagle's medium (high glucose) containing 10% fetal bovine serum, 4 mM L-glutamine and 1 mM sodium pyruvate, 1× nonessential amino acids, and G418 (1,000 μg/ml). Antiviral assays were performed in the same medium without G418. Cells were seeded in a 96-well plate at 1,500 cells per well, and test compounds were added immediately after seeding. Incubation time 4 days. At the end of the incubation step, total cellular RNA was isolated (RNeasy 96 kit; Qiagen). Replicon RNA and an internal control (TaqMan rRNA control reagents; Applied Biosystems) were amplified in a single-step multiplex RT-PCR protocol as recommended by the manufacturer. The HCV primers and probe were designed with Primer Express software (Applied Biosystems) and covered highly conserved 5′-untranslated region (UTR) sequences (sense primer: 5′-AGCCATGGCGTTAGTA(T)GAGTGT-3′ (SEQ ID NO: 1); antisense primer: 5′-TTCCGCAGACCACTATGG-3′ (SEQ ID NO:2); and probe; 5′-FAM-[…]-TAMRA-3′ (SEQ ID NO:3)).
# To express the antiviral effectiveness of a compound, the threshold RT-PCR cycle of the test compound was subtracted from the average threshold RT-PCR cycle of the no-drug control (ΔCtHCV). A ΔCt of 3.3 equals a 1-log 10 reduction (equal to the 90% effective concentration [EC90]) in replicon RNA levels. The cytotoxicity of the test compound could also be expressed by calculating the ΔCtrRNA values. The ΔΔCt specificity parameter could then be introduced (ΔCtHCV-ΔCtrRNA), in which the levels of HCV RNA are normalized for the rRNA levels and calibrated against the no-drug control.
# [1] = Hepatitis C virus, Huh-7, 96 h, Huh7 clone A replicon cells, read-out: CloneA EC90
# [2] = Hepatitis C virus, Huh-7, 96 h, read-out: CloneA EC90, Huh7 clone A replicon cells
# [3] = read-out: CloneA EC90, Huh7 clone A replicon cells
# [4] = Huh7 clone A replicon cells, read-out: CloneA EC90
Compound,EC90 [1] [nM],further results
"C[C@@]1(F)[C@@H]2O[P@@](=O)(OCc3ccccc3)OC[C@H]2O[C@H]1n1ccc(=O)[nH]c1=O [Compound 2b, 1-((2S,4aR,6R,7R,7aR)-2-Benzyloxy-7-fluoro-7-methyl-2-oxo-tetrahydro-2λ^5-furo[3,2-d][1,3,2]dioxaphosphinin-6-yl)-1H-pyrimidine-2,4-dione]",17700,–
"COP1(=O)OC[C@H]2O[C@@H](n3cnc4c(NC5CCC5)nc(N)nc43)[C@](C)(F)[C@@H]2O1 (stereo partly drawn) [Compound 6, N^6-Cyclobutyl-9((4aR,6R,7R,7aR)-7-fluoro-2-methoxy-7-methyl-2-oxo-tetrahydro-2λ^5-furo[3,2-d][1,3,2]dioxaphosphinin-6-yl)-9H-purine-2,6-diamine]",–,EC90 [2]: 1550 nM
"C[C@@]1(F)[C@@H]2O[P@@](=O)(OC3CCCC3)OC[C@H]2O[C@H]1n1cnc2c(N3CCC3)nc(N)nc21 [Example 32b, 6-Azetidin-1-yl-9-((4aR,6R,7R,7aR)-2-cyclopentyloxy-7-fluoro-7-methyl-2-oxo-tetrahydro-2λ^5-furo[3,2-d][1,3,2]dioxaphosphinin-6-yl)-9H-purin-2-ylamine]",4700,–
"C[C@@]1(F)[C@@H]2O[P@](=O)(OC3CCCC3)OC[C@H]2O[C@H]1n1cnc2c(N3CCC3)nc(N)nc21 [Example 32a, 6-Azetidin-1-yl-9-((4aR,6R,7R,7aR)-2-cyclopentyloxy-7-fluoro-7-methyl-2-oxo-tetrahydro-2λ^5-furo[3,2-d][1,3,2]dioxaphosphinin-6-yl)-9H-purin-2-ylamine]",8540,–
"CO[P@@]1(=O)OC[C@H]2O[C@@H](n3ccc(=O)[nH]c3=O)[C@](C)(F)[C@@H]2O1 [Compound 1b, 1-((2S,4aR,6R,7R,7aR)-7-Fluoro-2-methoxy-7-methyl-2-oxo-tetrahydro-2λ^5-furo[3,2-d][1,3,2]dioxaphosphinin-6-yl)-1H-pyrimidine-2,4-dione]",–,EC90 [3]: 17400 nM
"CCOc1nc(N)nc2c1ncn2[C@@H]1O[C@@H]2COP(=O)(OC(C)C)O[C@H]2[C@@]1(C)F (stereo partly drawn) [Compound 19, 6-Ethoxy-9-((4aR,6R,7R,7aR)-7-fluoro-2-isopropoxy-7-methyl-2-oxo-tetrahydro-2,5-furo[3,2-d][1,3,2]dioxaphosphinin-6-yl)-9H-purin-2-yl amine]",–,EC90 [4]: 600 nM
"COc1nc(N)nc2c1ncn2[C@@H]1O[C@@H]2COP(=O)(OC(C)C)O[C@H]2[C@@]1(C)F (single isomer, unassigned) [Example 43a]",290,–
"CCOc1nc(N)nc2c1ncn2[C@@H]1O[C@@H]2CO[P@](=O)(OCc3ccccc3)O[C@H]2[C@@]1(C)F [Example 48, 9-((4aR,6R,7R,7aR)-2-Benzyloxy-7-fluoro-7-methyl-2-oxo-tetrahydro-2λ5-furo[3,2-d][1,3,2]dioxaphosphinin-6-yl)-6-ethoxy-9H-purin-2-ylamine]",320,–
"COP1(=O)OC[C@H]2O[C@@H](n3cnc4c(O)nc(N)nc43)[C@](C)(F)[C@@H]2O1 (stereo partly drawn) [Compound 4, 2-Amino-9-((4aR,6R,7R,7aR)-7-fluoro-2-methoxy-7-methyl-2-oxo-tetrahydro-2λ^5-furo[3,2-d][1,3,2]dioxaphosphinin-6-yl)-9H-purin-6-ol]",–,EC90 [2]: 11700 nM
"COP1(=O)OC[C@H]2O[C@@H](n3cnc4c(N5CCC5)nc(N)nc43)[C@](C)(F)[C@@H]2O1 (stereo partly drawn) [Compound 3, 6-Azetidin-1-yl-9-((4aR,6R,7R,7aR)-7-fluoro-2-methoxy-7-methyl-2-oxo-tetrahydro-2λ^5-furo[3,2-d][1,3,2]dioxaphosphinin-6-yl)-9H-purin-2-ylamine]",–,EC90 [3]: 750 nM
"CCOc1nc(N)nc2c1ncn2[C@@H]1O[C@@H]2COP(=O)(OC)O[C@H]2[C@@]1(C)F (stereo partly drawn) [Compound 18, 6-Ethoxy-9-((4aR,6R,7R,7aR)-7-fluoro-2-methoxy-7-methyl-2-oxo-tetrahydro-2,5-furo[3,2-d][1,3,2]dioxaphosphinin-6-yl)-9H-purin-2-ylamine]",–,EC90 [4]: 480 nM
"COc1nc(N)nc2c1ncn2[C@@H]1O[C@@H]2COP(=O)(O)O[C@H]2[C@@]1(C)F [Example 41, (4aR,6R,7R,7aR)-6-(2-Amino-6-methoxy-purin-9-yl)-7-fluoro-7-methyl-2-oxo-tetrahydro-2λ^5-furo[3,2-d][1,3,2]dioxaphosphinin-2-ol]",98,–
"CCOc1nc(N)nc2c1ncn2[C@@H]1O[C@@H]2COP(=O)(O)O[C@H]2[C@@]1(C)F [Example 45, (4aR,6R,7R,7aR)-6-(2-Amino-6-ethoxy-purin-9-yl)-7-fluoro-7-methyl-2-oxo-tetrahydro-2λ^5-furo[3,2-d][1,3,2]dioxaphosphinin-2-ol]",700,–
"COc1nc(N)nc2c1ncn2[C@@H]1O[C@@H]2CO[P@](=O)(OC(C)C)O[C@H]2[C@@]1(C)F (single isomer, unassigned) [Example 43b]",60,–
"CO[P@@]1(=O)OC[C@H]2O[C@@H](n3ccc(=O)[nH]c3=O)[C@](C)(F)[C@@H]2O1 [Compound 1a, 1-((2S,4aR,6R,7R,7aR)-7-Fluoro-2-methoxy-7-methyl-2-oxo-tetrahydro-2λ^5-furo[3,2-d][1,3,2]dioxaphosphinin-6-yl)-1H-pyrimidine-2,4-dione]",–,EC90 [3]: 5350 nM
"C[C@@]1(F)[C@@H]2O[P@@](=O)(OCc3ccccc3)OC[C@H]2O[C@H]1n1ccc(=O)[nH]c1=O (single isomer, unassigned) [Compound 2a]",25200,–
"C[C@@]1(F)[C@@H]2O[P@](=O)(OCC3CC3)OC[C@H]2O[C@H]1n1cnc2c(O)nc(N)nc21 (single isomer, unassigned) [Example 38b]",26600,–
"CO[P@]1(=O)OC[C@H]2O[C@@H](n3ccc(N)nc3=O)[C@](C)(F)[C@@H]2O1 [Compound 5, 4-Amino-1-((2R,4aR,6R,7R,7aR)-7-fluoro-2-methoxy-7-methyl-2-oxo-tetrahydro-2λ^5-furo[3,2-d][1,3,2]dioxaphosphinin-6-yl)-1H-pyrimidin-2-one]",–,EC90 [2]: 8060 nM
"COc1nc(N)nc2c1ncn2[C@@H]1O[C@@H]2COP(=O)(OCc3ccccc3)O[C@H]2[C@@]1(C)F (stereo in doubt) [Example 44, 9-((2R,4aR,6R,7R,7aR)-2-Benzyloxy-7-fluoro-7-methyl-2-oxo-tetrahydro-2λ^5-furo[3,2-d][1,3,2]dioxaphosphinin-6-yl)-6-methoxy-9H-purin-2-ylamine]",53,–
